Measured values taken from the supplement of paper PMC10307832.

Key:
Test in all cases: relative viability (nuclei count vs DMSO), 5 days (fraction); higher = more cells survive
LK-2 = tested on: LK-2
Method in brief: (§1)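 Five library-drug doses in √10 steps were combined with a fixed anchor-drug dose, or a single drug was given alone, by pin tool to lung cancer cell lines in 1536-well plates the day after seeding. Nuclei were stained and counted after 5 days. Relative viability is the nuclei count in treated wells over that in vehicle wells, taken as the median of duplicate plates.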

201T = tested on: 201T
Method in brief: as §1

PC-14 = tested on: PC-14
Method in brief: as §1

NCI-H2170 = tested on: NCI-H2170
Method in brief: as §1

HARA = tested on: HARA
Method in brief: as §1

EKVX = tested on: EKVX
Method in brief: as §1

NCI-H3122 = tested on: NCI-H3122
Method in brief: as §1

BEN = tested on: BEN
Method in brief: as §1

COR-L23 = tested on: COR-L23
Method in brief: as §1

NCI-H727 = tested on: NCI-H727
Method in brief: as §1

NCI-H2009 = tested on: NCI-H2009
Method in brief: as §1

NCI-H441 = tested on: NCI-H441
Method in brief: as §1

CAL-12T = tested on: CAL-12T
Method in brief: as §1

COR-L 105 = tested on: COR-L 105
Method in brief: as §1

SW 900 = tested on: SW 900
Method in brief: as §1

LU99A = tested on: LU99A
Method in brief: as §1

NCI-H1437 = tested on: NCI-H1437
Method in brief: as §1

HCC-366 = tested on: HCC-366
Method in brief: as §1

ABC-1 = tested on: ABC-1
Method in brief: as §1

NCI-H838 = tested on: NCI-H838
Method in brief: as §1

NCI-H661 = tested on: NCI-H661
Method in brief: as §1

NCI-H1666 = tested on: NCI-H1666
Method in brief: as §1

NCI-H1650 = tested on: NCI-H1650
Method in brief: as §1

CC1(C)CCC(c2ccc(Cl)cc2)=C(CN2CCN(c3ccc(C(=O)NS(=O)(=O)c4ccc(N[C@H](CCN5CCOCC5)CSc5ccccc5)c(S(=O)(=O)C(F)(F)F)c4)cc3)CC2)C1 [Navitoclax] + CC(=O)c1c(C)c2cnc(Nc3ccc(N4CCNCC4)cn3)nc2n(C2CCCC2)c1=O [Palbociclib] (partner 0.5 µM)
relative viability (LK-2; first compound 0.005 µM): 0.588
relative viability (LK-2; first compound 0.01581 µM): 0.925
relative viability (LK-2; first compound 0.05 µM): 0.661
relative viability (LK-2; first compound 0.1581 µM): 0.502
relative viability (LK-2; first compound 0.5 µM): 0.758
relative viability (201T; first compound 0.005 µM): 0.342
relative viability (201T; first compound 0.01581 µM): 0.347
relative viability (201T; first compound 0.05 µM): 0.362
relative viability (201T; first compound 0.1581 µM): 0.365
relative viability (201T; first compound 0.5 µM): 0.355
relative viability (PC-14; first compound 0.005 µM): 0.537
relative viability (PC-14; first compound 0.01581 µM): 0.466
relative viability (PC-14; first compound 0.05 µM): 0.607
relative viability (PC-14; first compound 0.1581 µM): 0.528
relative viability (PC-14; first compound 0.5 µM): 0.509
relative viability (NCI-H2170; first compound 0.005 µM): 0.391
relative viability (NCI-H2170; first compound 0.01581 µM): 0.382
relative viability (NCI-H2170; first compound 0.05 µM): 0.409
relative viability (NCI-H2170; first compound 0.1581 µM): 0.394
relative viability (NCI-H2170; first compound 0.5 µM): 0.377
relative viability (HARA; first compound 0.005 µM): 0.236
relative viability (HARA; first compound 0.01581 µM): 0.271
relative viability (HARA; first compound 0.05 µM): 0.243
relative viability (HARA; first compound 0.1581 µM): 0.191
relative viability (HARA; first compound 0.5 µM): 0.216
relative viability (EKVX; first compound 0.005 µM): 0.44
relative viability (EKVX; first compound 0.01581 µM): 0.405
relative viability (EKVX; first compound 0.05 µM): 0.422
relative viability (EKVX; first compound 0.1581 µM): 0.403
relative viability (EKVX; first compound 0.5 µM): 0.388
relative viability (NCI-H3122; first compound 0.005 µM): 0.206
relative viability (NCI-H3122; first compound 0.01581 µM): 0.164
relative viability (NCI-H3122; first compound 0.05 µM): 0.225
relative viability (NCI-H3122; first compound 0.1581 µM): 0.177
relative viability (NCI-H3122; first compound 0.5 µM): 0.182
relative viability (BEN; first compound 0.005 µM): 0.475
relative viability (BEN; first compound 0.01581 µM): 0.525
relative viability (BEN; first compound 0.05 µM): 0.462
relative viability (BEN; first compound 0.1581 µM): 0.399
relative viability (BEN; first compound 0.5 µM): 0.268
relative viability (COR-L23; first compound 0.005 µM): 0.36
relative viability (COR-L23; first compound 0.01581 µM): 0.309
relative viability (COR-L23; first compound 0.05 µM): 0.28
relative viability (COR-L23; first compound 0.1581 µM): 0.331
relative viability (COR-L23; first compound 0.5 µM): 0.278
relative viability (NCI-H727; first compound 0.005 µM): 0.625
relative viability (NCI-H727; first compound 0.01581 µM): 0.602
relative viability (NCI-H727; first compound 0.05 µM): 0.67
relative viability (NCI-H727; first compound 0.1581 µM): 0.584
relative viability (NCI-H727; first compound 0.5 µM): 0.527
relative viability (NCI-H2009; first compound 0.005 µM): 0.186
relative viability (NCI-H2009; first compound 0.01581 µM): 0.302
relative viability (NCI-H2009; first compound 0.05 µM): 0.202
relative viability (NCI-H2009; first compound 0.1581 µM): 0.255
relative viability (NCI-H2009; first compound 0.5 µM): 0.222
relative viability (NCI-H441; first compound 0.005 µM): 0.225
relative viability (NCI-H441; first compound 0.01581 µM): 0.268
relative viability (NCI-H441; first compound 0.05 µM): 0.192
relative viability (NCI-H441; first compound 0.1581 µM): 0.216
relative viability (NCI-H441; first compound 0.5 µM): 0.284
relative viability (CAL-12T; first compound 0.005 µM): 0.4
relative viability (CAL-12T; first compound 0.01581 µM): 0.445
relative viability (CAL-12T; first compound 0.05 µM): 0.409
relative viability (CAL-12T; first compound 0.1581 µM): 0.496
relative viability (CAL-12T; first compound 0.5 µM): 0.405
relative viability (COR-L 105; first compound 0.005 µM): 0.408
relative viability (COR-L 105; first compound 0.01581 µM): 0.46
relative viability (COR-L 105; first compound 0.05 µM): 0.39
relative viability (COR-L 105; first compound 0.1581 µM): 0.427
relative viability (COR-L 105; first compound 0.5 µM): 0.34
relative viability (SW 900; first compound 0.005 µM): 0.565
relative viability (SW 900; first compound 0.01581 µM): 0.651
relative viability (SW 900; first compound 0.1581 µM): 0.55
relative viability (SW 900; first compound 0.5 µM): 0.518
relative viability (LU99A; first compound 0.005 µM): 0.392
relative viability (LU99A; first compound 0.01581 µM): 0.433
relative viability (LU99A; first compound 0.1581 µM): 0.437
relative viability (LU99A; first compound 0.5 µM): 0.48
relative viability (NCI-H1437; first compound 0.005 µM): 0.295
relative viability (NCI-H1437; first compound 0.01581 µM): 0.317
relative viability (NCI-H1437; first compound 0.05 µM): 0.2
relative viability (NCI-H1437; first compound 0.1581 µM): 0.291
relative viability (NCI-H1437; first compound 0.5 µM): 0.308
relative viability (HCC-366; first compound 0.005 µM): 0.355
relative viability (HCC-366; first compound 0.01581 µM): 0.48
relative viability (HCC-366; first compound 0.1581 µM): 0.35
relative viability (HCC-366; first compound 0.5 µM): 0.34
relative viability (ABC-1; first compound 0.005 µM): 0.896
relative viability (ABC-1; first compound 0.01581 µM): 0.845
relative viability (ABC-1; first compound 0.05 µM): 0.691
relative viability (ABC-1; first compound 0.1581 µM): 0.747
relative viability (ABC-1; first compound 0.5 µM): 0.639
relative viability (NCI-H838; first compound 0.005 µM): 0.193
relative viability (NCI-H838; first compound 0.01581 µM): 0.253
relative viability (NCI-H838; first compound 0.05 µM): 0.177
relative viability (NCI-H838; first compound 0.1581 µM): 0.209
relative viability (NCI-H838; first compound 0.5 µM): 0.224
relative viability (NCI-H661; first compound 0.005 µM): 0.426
relative viability (NCI-H661; first compound 0.01581 µM): 0.451
relative viability (NCI-H661; first compound 0.05 µM): 0.387
relative viability (NCI-H661; first compound 0.1581 µM): 0.435
relative viability (NCI-H661; first compound 0.5 µM): 0.384
relative viability (NCI-H1666; first compound 0.005 µM): 0.623
relative viability (NCI-H1666; first compound 0.01581 µM): 0.69
relative viability (NCI-H1666; first compound 0.05 µM): 0.666
relative viability (NCI-H1666; first compound 0.1581 µM): 0.665
relative viability (NCI-H1666; first compound 0.5 µM): 0.726
relative viability (NCI-H1650; first compound 0.005 µM): 0.385
relative viability (NCI-H1650; first compound 0.01581 µM): 0.456
relative viability (NCI-H1650; first compound 0.05 µM): 0.315
relative viability (NCI-H1650; first compound 0.1581 µM): 0.346
relative viability (NCI-H1650; first compound 0.5 µM): 0.316
